Measured values published in patent publication EP0410762A1, “Naphthyridine derivatives” (DowElanco, priority 1989, dated 1991).

Legend:
Assay type in all cases: in vivo
[1] = system: Southern corn rootworm (Diabrotica undecimpuctata howardi Barber); test: Mite/insect screen: corn rootworm, treated soil; settings: percent mortality, soil treatment; for mortality at 24 ppm: CRW rate 24.00 PPM; for mortality at 12 ppm: CRW rate 12.00 PPM
[2] = system: Pseudoperonospora cubensis; test: Greenhouse Test 1, foliar spray fungicide screen: downy mildew; settings: disease control rating, host squash, 400 ppm (+++ at 100 ppm)
[3] = system: Twospotted spider mites (Tetranychus urticae Koch); test: Mite/insect screen: twospotted spider mites on sprayed squash cotyledons; settings: percent mortality, leaf spray, read-out: SM RESULTS; for mortality at 400 ppm: rate 400 PPM; for mortality at 200 ppm: rate 200 PPM
[4] = system: southern armyworm (Spodopetra eridania Cramer); test: Mite/insect screen: southern armyworm on sprayed squash leaves; settings: Spodoptera eridania, percent mortality, leaf spray, read-out: SAW RESULTS; for mortality at 400 ppm: rate 400 PPM; for mortality at 200 ppm: rate 200 PPM
Botrytis cinerea = test: Greenhouse Test 1, foliar spray fungicide screen: gray mold; settings: disease control rating, host grape berries, 400 ppm (+++ at 100 ppm)
Pyricularia oryzae = settings: disease control rating; foliar spray; host rice; 400 ppm (+++ at 100 ppm)
[5] = system: melon aphids (Aphis gossypii Glover); test: Mite/insect screen: melon aphids on sprayed squash cotyledons; settings: percent mortality, leaf spray, read-out: MA RESULTS; for mortality at 400 ppm: rate 400 PPM; for mortality at 200 ppm: rate 200 PPM
[6] = system: Puccinia recondita tritici; test: Greenhouse Test 1, foliar spray fungicide screen: leaf rust; settings: disease control rating, host wheat, 400 ppm (+++ at 100 ppm)
[7] = system: Erysiphe graminis tritici; test: Greenhouse Test 1, foliar spray fungicide screen: powdery mildew; settings: disease control rating, host wheat, 400 ppm (+++ at 100 ppm)
Venturia inaequalis = test: Greenhouse Test 1, foliar spray fungicide screen: apple scab; settings: disease control rating, host apple seedling, 400 ppm (+++ at 100 ppm)
Cercospora beticola = test: Greenhouse Test 1, foliar spray fungicide screen: leaf spot; settings: disease control rating, host sugar beet, 400 ppm (+++ at 100 ppm)
Septoria tritici = test: Greenhouse Test 1, foliar spray fungicide screen: leaf blotch; settings: disease control rating, host wheat, 400 ppm (+++ at 100 ppm)

Compound | mortality at 24 ppm [1] [%] | DOWN MDEW [2] | mortality at 400 ppm [3] [%] | mortality at 400 ppm [4] [%] | GRAY MOLD (Botrytis cinerea) | RICE BLAST (Pyricularia oryzae) | mortality at 400 ppm [5] [%] | LEAF RUST [6] | POWD MDEW [7] | mortality at 12 ppm [1] [%] | mortality at 200 ppm [3] [%] | mortality at 200 ppm [4] [%] | mortality at 200 ppm [5] [%] | APPL SCAB (Venturia inaequalis) | LEAF SPOT (Cercospora beticola) | LEAF BLOT (Septoria tritici)
Fc1ccc(Oc2ccnc3cccnc23)cc1 [Example 4, 4-(4-fluorophenoxy)-1,5-naphthyridine] | 0 | ++ (++ = 90-100% control at 400 ppm) | 80 | 0 | - (- = 0-19% control at 400 ppm) | + (+ = 20-89% control at 400 ppm) | 80 | + (+ = 20-89% control at 400 ppm) | + (+ = 20-89% control at 400 ppm) |  |  |  |  |  |  | 
CC(C)(C)c1ccc(CCNc2ccnc3cccnc23)cc1 [Example 7, N-[2-[4-(t-butyl)phenyl]ethyl]-1,5-naphthyridin-4-amine] | 0 | +++ (+++ = 90-100% control at 100 ppm) | 100 | 0 | - (- = 0-19% control at 400 ppm) | ++ (++ = 90-100% control at 400 ppm) | 100 | +++ (+++ = 90-100% control at 100 ppm) | ++ (++ = 90-100% control at 400 ppm) | 0 | 90 | 0 | 90 |  |  | 
Fc1ccc(Oc2ccnc3cnccc23)cc1 [Example 2, 4-(4-fluorophenoxy)-1,7-naphthyridine] | 0 | + (+ = 20-89% control at 400 ppm) | 0 | 0 | - (- = 0-19% control at 400 ppm) | - (- = 0-19% control at 400 ppm) | 0 | + (+ = 20-89% control at 400 ppm) | + (+ = 20-89% control at 400 ppm) | 0 | 40 | 0 | 30 |  |  | 
Clc1ccccc1Oc1ccnc2ncccc12 [Example 8, 4-(2-chlorophenoxy)-1,8-naphthyridine] | 0 | ++ (++ = 90-100% control at 400 ppm) | 0 | 0 | - (- = 0-19% control at 400 ppm) | + (+ = 20-89% control at 400 ppm) | 0 | + (+ = 20-89% control at 400 ppm) | - (- = 0-19% control at 400 ppm) | 0 | 0 | 0 | 0 |  |  | 
Fc1ccc(Oc2ccnc3ccncc23)cc1 [Example 3, 4-(4-fluorophenoxy)-1,6-naphthyridine] | 0 | - (- = 0-19% control at 400 ppm) | 0 | 0 | - (- = 0-19% control at 400 ppm) | - (- = 0-19% control at 400 ppm) | 0 | - (- = 0-19% control at 400 ppm) | - (- = 0-19% control at 400 ppm) | 0 | 0 | 0 | 0 |  |  | 
CCOc1ccc(CCOc2ccnc3cccnc23)cc1 [Example 9, 4-[2-(4-ethoxyphenyl)ethoxy]-1,5-naphthyridine] | 0 | ++ (++ = 90-100% control at 400 ppm) | 80 | 0 | - (- = 0-19% control at 400 ppm) | ++ (++ = 90-100% control at 400 ppm) | 100 | +++ (+++ = 90-100% control at 100 ppm) | + (+ = 20-89% control at 400 ppm) | 0 | 40 | 0 | 100 |  |  | 
c1ccc(CCNc2ccnc3cccnc23)cc1 [Example 10, N-(2-phenylethyl)-1,5-naphthyridin-4-amine] |  | +++ (+++ = 90-100% control at 100 ppm) |  |  | - (- = 0-19% control at 400 ppm) | + (+ = 20-89% control at 400 ppm) |  | + (+ = 20-89% control at 400 ppm) | + (+ = 20-89% control at 400 ppm) | 0 | 0 | 0 | 0 | + (+ = 20-89% control at 400 ppm) | + (+ = 20-89% control at 400 ppm) | - (- = 0-19% control at 400 ppm)
CCOc1ccc(CCCOc2ccnc3cccnc23)cc1 [Example 6, 4-[3-(4-ethoxyphenyl)propoxy]-1,5-naphthyridine] | 0 | - (- = 0-19% control at 400 ppm) | 0 | 0 | - (- = 0-19% control at 400 ppm) | - (- = 0-19% control at 400 ppm) | 0 | - (- = 0-19% control at 400 ppm) | - (- = 0-19% control at 400 ppm) | 0 | 0 | 0 | 0 |  |  | 
Fc1ccc(Oc2ccnc3ncccc23)cc1 [Example 1, 4-(4-fluorophenoxy)-1,8-naphthyridine] | 0 | ++ (++ = 90-100% control at 400 ppm) | 0 | 0 | - (- = 0-19% control at 400 ppm) | - (- = 0-19% control at 400 ppm) | 0 | ++ (++ = 90-100% control at 400 ppm) | + (+ = 20-89% control at 400 ppm) | 0 | 0 | 0 | 0 |  |  | 
CC(C)(C)c1ccc(CCOc2ccnc3cccnc23)cc1 [Example 5, 4-[2-[4-(t-butyl)phenyl]ethoxy]-1,5-naphthyridine] | 0 | +++ (+++ = 90-100% control at 100 ppm) | 100 | 0 | - (- = 0-19% control at 400 ppm) | ++ (++ = 90-100% control at 400 ppm) | 80 | ++ (++ = 90-100% control at 400 ppm) | + (+ = 20-89% control at 400 ppm) | 0 | 100 | 0 | 50 |  |  | 
